The numbers were not newly measured in patent publication US20260041141A1, “AEROSOL-GENERATING ARTICLE WITH AN ISOLATED AVERSIVE COMPONENT” (PHILIP MORRIS PRODUCTS S.A., priority 2022, published 2026), which cites them from elsewhere.

For this series the following is noted: reciprocal of the dilution that still has a bitter taste; quinine hydrochloride reference set at 200,000.

Where a name gives a salt, the structure may show the parent alone.

As for `CC1=C[C@H]2[C@H]3[C@H](C(C)=C4[C@H]5OC(=O)[C@@H](C)[C@@H]5CC[C@](C)(O)[C@@H]43)[C@@]13[C@@H]2[C@@](C)(O)CC[C@H]1[C@H](C)C(=O)O[C@@H]13` [Absinthin], the Bitterness value is recorded as 3,000,000. In the case of `C[C@@]12C[C@@H](c3ccoc3)OC(=O)[C@@H]1CC[C@]1(C)[C@H]2[C@@H]2C=C[C@@]1(O)C(=O)O2` [Columbin], the Bitterness value is on record as 60,000,000. With `COC1=C[C@@H](C)[C@@H]2C[C@H]3OC(=O)C[C@H]4C(C)=C(OC)C(=O)[C@H]([C@@]2(C)C1=O)[C@@]34C` [Quassin], the Bitterness value is listed as 13,000,000.

Consider `C=C[C@H]1C[N@@]2CC[C@H]1C[C@H]2[C@H](O)c1ccnc2ccc(OC)cc12` [Quinine hydrochloride], for which the Bitterness value was 200,000.

Take Amarogentin: the Bitterness value is reported as 58,000,000.
